The source of these data is US20070203159A1, “Purine compounds” (priority 2006, published 2007).

By MIC is commonly meant the smallest concentration in the dilution series that meets the test's criterion for growth inhibition. A word on the melting point: it is the temperature of the solid-liquid transition. By EC99 is commonly meant the concentration at which the effect reaches the 99% level. The low end stands for greater potency, the high end for weaker potency.

In brackets after ≈: the same amount, converted by molar mass. Where two headings read alike, the source gives them in different places.

Data set [1] relates to Mycobacterium tuberculosis H37Rv (ATCC 27294). Kind of data set: Microplate Alamar Blue Assay (MABA): primary screening and MIC determination. The class given is cell-based. The note with it: retest at lower concentrations in the MABA.
Data set [2] relates to M. tuberculosis Erdman (ATCC 35801). Kind of data set: 90% and 99% effective concentration in M. tuberculosis infected macrophages. The following applies: for EC99 / EC^+99: monolayers of mouse bone marrow macrophages; for EC99: […]% reduction in residual mycobacterial growth after 7 days compared with untreated controls; for EC^+99: reduction in residual mycobacterial growth after 7 days compared with untreated controls. The class given is cell-based.

Where [3] appears, read: Mycobacterium tuberculosis, read-out: MIC.

`Cc1ccc(Cn2cnc3c(-c4ccco4)ncnc32)cc1` [Example 31, 6-(2-Furyl)-9-(4-methylphenylmethyl)-9H-purine] had a melting point of 166 to 167 °C. The MIC in data set [1] (setting [3]) is 3.13 mg/L (≈ 10.8 µM).
On the same counts, the results for `COc1ccc(Cn2cnc3c(-c4ccco4)ncnc32)cc1C` [Example 35, 6-(2-Furyl)-9-(4-methoxy-3-methylphenylmethyl)-9H-purine] are 169 to 170 °C and 0.78 mg/L (≈ 2.43 µM).
On the same counts, the results for `Clc1nc(-c2ccco2)c2ncn(Cc3ccc(Cl)c(Cl)c3)c2n1` [Example 47, 2-Chloro-9-(3,4-dichlorophenylmethyl)-6-(2-furyl)-9H-purine] are 191 to 193 °C and 6.25 mg/L (≈ 16.5 µM).
The compound `CC(C)(C)c1ccc(Cn2cnc3c(-c4ccco4)ncnc32)cc1` [Example 32, 9-(4-tert-Butylphenylmethyl)-6-(2-furyl)-9H-purine] came in with a melting point of 185 to 187 °C. Moreover, the minimal inhibitory concentration (MIC) in data set [1] (setting [3]) was 12.5 mg/L (≈ 37.6 µM).
Compound `COc1ccc(Cn2ccc3c(-c4ccco4)ncnc32)cc1` [Example 109, 4-(2-Furyl)-7-(4-methoxybenzyl)-7H-pyrrolo[2,3-d]pyrimidine] displayed a melting point of 130 to 131 °C. In data set [1] (setting [3]), the minimal inhibitory concentration (MIC) is 0.39 mg/L (≈ 1.28 µM).
For the compound `COc1cccc(Cn2cnc3c(-c4ccco4)ncnc32)c1` [Example 34, 6-(2-Furyl)-9-(3-methoxyphenylmethyl)-9H-purine], the melting point is 138 to 139 °C. Further, in data set [1] (setting [3]), the MIC is 6.25 mg/L (≈ 20.4 µM).
On the same counts, the results for `CSc1ccc(Cn2cnc3c(-c4ccco4)ncnc32)cc1` [Example 42, 6-(2-Furyl)-9-(4-methylthiophenylmethyl)-9H-purine] are 157 to 159 °C and 6.25 mg/L (≈ 19.4 µM).
For `CN(C)c1ccc(Cn2cnc3c(-c4ccco4)ncnc32)cc1` [Example 43, 9-(4-Dimethylaminophenylmethyl)-6-(2-furyl)-9H-purine], the melting point fell in the range of 158 to 160 °C. For the same compound, in data set [1] (setting [3]), the minimum inhibitory concentration (MIC) was 12.5 mg/L (≈ 39.1 µM).
On the same counts, the results for `COC(c1ccccc1)n1cnc2c(-c3cccs3)nc(Cl)nc21` (centres unmarked) [Example 55, 2-Chloro-9-(methoxyphenylmethyl)-6-(2-thienyl)-9H-purine] are 183 to 185 °C and 0.78 mg/L (≈ 2.19 µM).
`Clc1ccc(Cn2cnc3c(-c4ccco4)ncnc32)cc1` [Example 27, 9-(4-Chlorophenylmethyl)-6-(2-furyl)-9H-purine] came in with a melting point of 156 to 159 °C. Besides, the MIC in data set [1] (setting [3]) amounted to 6.25 mg/L (≈ 20.1 µM).
Regarding `Clc1ccc(Cn2cnc3c(-c4ccco4)nc(Cl)nc32)cc1` [Example 46, 2-Chloro-9-(4-chlorophenylmethyl)-6-(2-furyl)-9H-purine], the minimum inhibitory concentration (MIC) in data set [1] (setting [3]) stood at 1.56 mg/L (≈ 4.52 µM).
`COc1ccc(Cn2cnc3c(-c4ccco4)ncnc32)cc1` [Example 33, 6-(2-Furyl)-9-(4-methoxyphenylmethyl)-9H-purine] returned a melting point of 175 to 176 °C. For the same compound, the minimum inhibitory concentration (MIC) in data set [1] (setting [3]) was found to be 1.56 mg/L (≈ 5.09 µM). Moreover, the EC90/MIC in data set [2] (MIC data from Table 1) is on record as >8.01. For the same compound, in data set [2], the EC99 was >12.5 µg/mL and the “EC^+99” value was >12.5 µg/mL.
Take `COc1ccc(Cn2cnc3c(-c4ccc(OC)cc4)nc(Cl)nc32)cc1` [Example 54, 2-Chloro-6-(4-methoxyphenyl)-9-(4-methoxyphenylmethyl)-9H-purine]: the melting point lay within 152 to 154 °C. Further, the MIC in data set [1] (setting [3]) was 1.56 mg/L (≈ 4.1 µM).
Consider `Fc1ccc(Cn2cnc3c(-c4ccco4)ncnc32)cc1` [Example 29, 9-(4-Fluorophenylmethyl)-6-(2-furyl)-9H-purine], for which the melting point was 162 to 164 °C. Besides, the minimum inhibitory concentration (MIC) in data set [1] (setting [3]) was found to be 6.25 mg/L (≈ 21.2 µM).
`COc1ccc(Cn2cnc3c(-c4ccco4)nc(SC)nc32)cc1` [Example 68, 6-(2-Furyl)-9-(4-methoxyphenylmethyl)-2-methylthio-9H-purine] had a melting point of 147 to 148 °C. In data set [1] (setting [3]), the MIC came to 0.78 mg/L (≈ 2.21 µM).
On to `COc1ccc(Cn2cnc3c(-c4ccco4)nc(Cl)nc32)cc1` [Example 51, 2-Chloro-6-(2-furyl)-9-(4-methoxyphenylmethyl)-9H-purine], for which the MIC in data set [1] (setting [3]) came out at 0.39 mg/L (≈ 1.14 µM). For the same compound, in data set [2], the concentration for an effect of 99% (EC99) turned out to be 0.67 µg/mL and the “EC^+99” value was determined as 0.02 µg/mL.
Take `Fc1ccc(Cn2cnc3c(-c4ccco4)nc(Cl)nc32)cc1` [Example 49, 2-Chloro-9-(4-fluorophenylmethyl)-6-(2-furyl)-9H-purine]: the melting point lay in the range of 152 to 155 °C. The minimal inhibitory concentration (MIC) in data set [1] (setting [3]) stood at 3.13 mg/L (≈ 9.52 µM).
On the same counts, the results for `c1ccc(COc2ccc(Cn3cnc4c(-c5ccco5)ncnc43)cc2)cc1` [Example 40, 9-(4-Benzyloxyphenylmethyl)-6-(2-furyl)-9H-purine] are 145 to 146 °C and 1.56 mg/L (≈ 4.08 µM).
For the compound “2-Chloro-6-(2-furyl)-9-(4-methyloxyphenylmethyl)-9H-purine [Example 50]”, the minimum inhibitory concentration (MIC) in data set [1] turned out to be 0.78 mg/L.
In turn, `Clc1cccc(Cn2cnc3c(-c4ccco4)nc(Cl)nc32)c1` [Example 48, 2-Chloro-9-(3-chlorophenylmethyl)-6-(2-furyl)-9H-purine] gave a melting point of 196 to 198 °C. The MIC in data set [1] (setting [3]) came out at 3.13 mg/L (≈ 9.07 µM).
On the same counts, the results for `Clc1ccc(Cn2cnc3c(-c4ccco4)ncnc32)cc1Cl` [Example 28, 9-(3,4-Dichlorophenylmethyl)-6-(2-furyl)-9H-purine] are 183 to 185 °C and 6.25 mg/L (≈ 18.1 µM).
On the same counts, the results for `CCOc1ccc(Cn2cnc3c(-c4ccco4)ncnc32)cc1` [Example 39, 9-(4-Ethoxyphenylmethyl)-6-(2-furyl)-9H-purine] are 165 to 166 °C and 3.13 mg/L (≈ 9.77 µM).
On the same counts, the results for `COc1ccc(Cn2cnc3c(-c4ccco4)nc(Cl)nc32)cc1C` [Example 53, 2-Chloro-6-(2-furyl)-9-(4-methoxy-3-methylphenylmethyl)-9H-purine] are 177 to 179 °C and 0.78 mg/L (≈ 2.2 µM).
Take “2-Cyclopentenyl-6-(2-furyl)-9-(4-methoxyphenylmethyl)-9H-purine [Example 81]”: in data set [1], the MIC was 6.25 mg/L.
Take `COc1cccc(Cn2cnc3c(-c4ccco4)nc(Cl)nc32)c1` [Example 52, 2-Chloro-6-(2-furyl)-9-(3-methoxyphenylmethyl)-9H-purine]: the melting point lay in the range of 160 to 161 °C. Moreover, the MIC in data set [1] (setting [3]) was 3.13 mg/L (≈ 9.19 µM).
In turn, `COc1ccc(Cn2cnc3c(-c4ccco4)nc(C4CC4)nc32)cc1` [Example 80, 2-Cyclopropyl-6-(2-furyl)-9-(4-methoxyphenylmethyl)-9H-purine] yielded a melting point of 115 to 116 °C.
The same measure, in the same setting: as for `COc1ccc(Cn2cnc3c(-c4ccco4)nc(OCc4ccccc4)nc32)cc1`, the figure is 122 °C; as for `FC(F)(F)Oc1cccc(Cn2cnc3c(-c4ccco4)ncnc32)c1` [Example 38, 6-(2-Furyl)-9-(3-trifluoromethoxyphenylmethyl)-9H-purine], 133 to 135 °C.
On the same count and under the same terms, next, `COc1ccc(Cn2cnc3c(-c4ccco4)nc(N(C)C)nc32)cc1`: 163 to 164 °C; `CC#Cc1nc(-c2ccco2)c2ncn(Cc3ccc(OC)cc3)c2n1`: 158 to 160 °C.
